Legend:
[1] = tested on: CD4+ T cells from T1N donors; test: In vitro peptide stimulation of CD4+ T cells with peptide-loaded fixed T2DQ6 cells, then DQ6-peptide tetramer staining; type: cell-based, human; conditions: for Frequency of corresponding DQ6-peptide tetramer+/CD4+ T cells after in vitro stimulation with the peptide: T2DQ6 pulsed with 1 μM peptide, co-culture with CD4+ T cells of T1N donors, IL-7/IL-2, with vs without peptide, n = 13 donors (HCRT peptides)
Protocol: Fig. 3 Tetramer^+/CD4^+ T cells in DQ6^+ donors. a Dot-plots of CD4^+ T cells stimulated in vitro with the indicated peptides followed by staining with the indicated tetramers. Frequencies (%) of tetramer^+/CD4^+ T cells are indicated. b Comparison between frequencies of tetramer^+ T cells from the same T1N donor (paired as indicated) with and without peptide stimulation. Significance (P < 0.05, bolded) is determined using the paired samples t-test (n = 13 donors). c Enrichment (with peptide stimulation vs. without) of DQ6-HCRT56–69 tetramer^+/CD4^+ T cells in HCRT87–100 peptide stimulated culture. d Frequencies or e tetramer-binding ranks (mean index fluorescence intensity) of tetramer^+ T cells from patients and controls (sample information summarized in Table 1) stained with the indicated tetramers. Statistical analysis compares control and patient samples within each tetramer specificity. Significance (P < 0.05, bolded) is determined using the unequal variance t-test. The error bar represents mean ± SEM
To test for the presence of DQ6-HCRTpeptide tetramer^+/CD4^+ T cells, a peptide-loaded antigen-presenting cell (APC) line T2DQ6 (fixed to limit APC proliferation) was co-cultured with T cells for DQ6-restricted antigen stimulation. T2DQ6 was constructed by stable transfection of DQ6 (DQA1*01:02/DQB1*06:02) into T2, a class II-deficient TxB hybrid cell[31]. T2DQ6 cells were maintained in IMDM, GlutaMAX supplemented media (Thermo Fisher Scientific) with 10% HI FBS, 1% penicillin/streptomycin (P/S) and 1 mg/ml G418 (to maintain selective pressure on DQ6 transfectants). To load antigen, T2DQ6 cells were pulsed with peptides (i.e., EBV486–500, HCRT56–69, HCRT87–100, synthesized by Genscript) at 1 μM final concentration and incubated for 6 h at 37 °C. After peptide loading, 10 million T2DQ6 cells were washed with phosphate buffered saline (PBS) and then fixed by incubating with 0.025% glutaraldehyde in 2 ml PBS at RT for 30 s. After the addition of another 2 ml PBS, the cells were incubated for another 10 min at RT. Fixed T2DQ6 was washed twice with PBS and once with complete RPMI (RPMI 1640 medium supplemented with 10% HI human AB serum, 2 mM glutamine and 1% PS, Thermo Fisher Scientific) before mixing with CD4^+ T cells. Human PBMCs frozen in NUNC tubes were thawed quickly at 37 °C and added slowly to 10 ml warm complete RPMI. PBMCs were pelleted and resuspended in cold buffer for CD4^+ T cell isolation. Cells were isolated from the PBMCs by negative selection, using the CD4^+ cell isolation kit, according to the manufacturer’s instructions (Miltenyi Biotec). […]

[2] = target: soluble DQ6 (HLA-DQA1*01:02/DQB1*06:02) (Homo sapiens, UniProt P01909+P01920, A157G/A45G/C70R/E118A/E183D/E77G/F83G/G63E/H151Q/H199R/H252R/H253Q/I129T/I235V/I88M/INS77G/K197Q/L117V/L119F/L178F/L71W/L74F/L85Q/L91A/L98M/N214S/P87R/Q116E/Q76K/R102G/R240Q/R75S/R78G/S102Y/S185I/S41F/S97I/T121G/T122I/T172A/T86R/V229M/V68A/V73E/Y34C/Y41F/Y58L); test: Peptide competition assay: inhibition of DQ6 binding of biotinylated EBV486–500; conditions: test peptide 40 μM, 20 h
Protocol: To identify DQ6-restricted T epitopes in prepro-HCRT (the HCRT precursor), we used a modified version of the peptide-loading assay[31] in which HCRT peptides were tested for the ability to inhibit DQ6-binding of EBV486–500, a known DQ6-binding epitope derived from Epstein-Bar virus. We evaluated overlapping 15-mer peptides, offset by four amino acids (aa), covering the entire prepro-HCRT sequence (Supplementary Data 1). […] These were consistent with in silico peptide-binding predictions using the NetMHCIIpan3.2 software[33] (Supplementary Fig. 1a–c). The nine peptides span five regions (i–v) of prepro-HCRT. A strong binder (>75% competition), HCRT1–15, was within the signal peptide region (i) and contained a 9-aa core, […], previously shown to bind DQ6 by X-ray structure. Two overlapping peptides span the C-terminus of the signal peptide and N-terminus of the secreted HCRT1 neurotransmitter. This region (ii) contained three possible registers as predicted by NetMHCIIpan3.2 using nonamers (Supplementary Fig. 1d). […]
Fig. 2 DQ6-binding cores in prepro-HCRT and their structural impacts. a Thirty overlapping peptides covering prepro-HCRT were added, individually, into a reaction containing soluble DQ6, bio-EBV486–500 peptide, and HLA-DM (a peptide loading catalyst). DQ6-associated bio-EBV486–500 was measured at steady state by ELISA[31]. %Competition = 1−%DQ6/EBV binding. […]

[3] = tested on: TCR27 (TRAJ24+ TCR) in J76-NFATRE-luc Jurkat cells; test: T cell activation assay using NFAT-RE luciferase reporter, TCR27 Jurkat transfectants with K562-DQ6 APCs; type: cell-based, human; design: dose or concentration left out as unconfirmed; conditions: HCRT peptide, 1 × 10^5 K562-DQ6 APCs + 1 × 10^5 TCR27 J76-NFATRE-luc cells, 37 °C, 1 day; Nano-Glo chemiluminescence
Description: Fig. 6 Validation of tetramer binding and TCR signaling. a TCRs tested by transfection into Jurkat-luciferase reporter system. b Dot-plots of Jurkat transfectants expressing TCRs as shown in a. Expression of GFP indicates a successful transfection of plasmids directing the expression of TCRs. c Tetramer staining of TCR^+ Jurkat cells with percentages of tetramer^+ cells indicated. d MFIs of the tetramer-associated signal on the surface of TCR^+ cells are compared. e Jurkat cells expressing the indicated TCR were incubated with DQ6-expressing APCs (HLA class II^- K562 cells transfected with DQ6) in the presence of HCRT peptides or control stimuli: PBS (negative) or anti-CD3/anti-CD28 Abs (positive). Luciferase activity reflecting TCR-mediated signaling was measured and analyzed as previously described. […] Significance (P < 0.05, bolded) is determined using t-test comparing the indicated TCR and the TCR control
To encode the entire α/β chains of a candidate TCR, the nucleotide sequences for CDR3α and CDR3β (Supplementary Data 3) were incorporated in frame with the corresponding V(D)J genes (IMGT/V-QUEST[43]). TCRα/β genes were then synthesized and cloned into a plasmid pEF1a-TCRA_2A_TCRB_IRES-AcGFP1 (by GenScript). Each reconstructed plasmid uses a mammalian promoter, EF1a to direct co-expression of α and β chains of one candidate TCR. TCRA and TCRB are separated by the 2A self-cleaving peptide sequence. For selection purposes, the plasmid also encodes the green fluorescence protein (GFP) and neomycin resistance gene, with expression driven by separate promoters. […]
The TCR transfectants of J76-NFATRE-luc cells expresses the NFAT-RE (response element)-luciferase reporter gene allowing the conversion of T cell activation signaling to luciferase activity. […] The co-culture was incubated with various stimuli at 37 °C for 1 day before quantification of the luciferase activity. […] The mixture was then transferred to a flat-bottom white 96-well plate (Costar) for a measurement of chemiluminescence using a plate reader.

AGNHAAGILTLGKR [HCRT56–69]
Frequency of corresponding DQ6-peptide tetramer+/CD4+ T cells after in vitro stimulation with the peptide [1]: significantly increased

ALLSSGAAAQPLPDC [Hcrt25-39, 15-mer overlapping peptide of prepro-HCRT]
DQ6 binder class by %Competition ([2]; same assay as E1, pH 4.6, 37 °C): strong

EBV486-500: known DQ6-binding epitope derived from Epstein-Barr virus nuclear antigen; positive control peptide [reference compound]
Frequency of corresponding DQ6-peptide tetramer+/CD4+ T cells after in vitro stimulation with the peptide [1]: enrichment

MNLPSTKVSWAAV [HCRT1–13]
TCR-mediated signaling (luciferase activity) of TCR27 transfectants [3]: null function

MNLPSTKVSWAAVTL [Hcrt1-15, 15-mer overlapping peptide of prepro-HCRT]
%Competition (inhibition of the indicator EBV peptide binding to DQ6) ([2]; 1 μM biotinylated EBV486–500, 25 nM thrombin-cleaved DQ6-CLIP87–101, 100 nM DM, acetate pH 4.6, 37 °C, DELFIA Eu-streptavidin time-resolved fluorescence, %Competition = 1−%DQ6/EBV binding, mean, n = 4): > 75%

SGNHAAGILTM-NH2 [HCRT87–97-NH2]
TCR-mediated signaling (luciferase activity) of TCR27 transfectants [3]: stronger signaling

SGNHAAGILTMGRR [HCRT87–100]
TCR-mediated signaling (luciferase activity) of TCR27 transfectants [3]: moderate TCR-mediated signaling
Frequency of corresponding DQ6-peptide tetramer+/CD4+ T cells after in vitro stimulation with the peptide [1]: significantly increased
DQ6-HCRT56–69 tetramer+/CD4+ T cells in HCRT87–100 peptide stimulated culture ([1]; with peptide stimulation vs without, some T1N donors): in vitro enrichment
